The values below come from PMC10011573, “Development of novel broad-spectrum antimicrobial lipopeptides derived from plantaricin NC8 β” (Scientific Reports, 2023).

For orientation: MBC means the smallest concentration meeting the test's criterion for killing. In general, MIC refers to the smallest concentration in the dilution series that meets the test's criterion for growth inhibition.

For one data set, the system named is A. baumannii. The settings on record: 20 h.
Another data set has as its system E. coli (K-12 MG1655). The settings on record: Table 3; K-12 MG1655; broth microdilution, 50:50 PBS/LB-broth, 200 µL, 20 h, 37 °C. A general note: Broth dilution looks for growth in wells or tubes with falling amounts of substance.
The next data set has as its system P. aeruginosa. The settings on record: 20 h.
Another data set concerns K. pneumoniae. The settings on record: 20 h.
A further data set has as its system E. cloacae. The settings on record: 20 h.
Data set [1] concerns S. aureus (ATCC 29213, MSSA). The settings on record: ATCC 29213, 20 h.
Another data set deals with E. faecium. The settings on record: 20 h.
Data set [2] in a line: Dynamic light scattering, critical aggregation concentration. In kind it is physicochemical. The settings on record: DLS scattering intensity at 90°, 10 mM PBS pH 7.4, serial dilution 100 µM to 0.01 nM, 22 °C, average of 10 runs of 30 s; estimated. Here is the method: Lipopeptide aggregation was evaluated on a ALV/CGS-8F Platform (ALV-GmbH, Langen, Germany) equipped with a […] He–Ne laser. Scattered light was collected at 90°. PBS (10 mM, pH 7.4) was chosen as buffer, and filtered with a 0.22 µm filter prior to use. The samples were prepared in a cylindrical glass cuvette immersed in refractive-index matching toluene. The peptides were serially diluted between 100 µM and 0.01 nM, sonicated for 1 min and incubated for 5 min at 22 °C and vortexed prior to measuring. The temperature was controlled throughout the experiment with the use of a circulating water bath. Data were analysed with ALV-Correlator (Version 3.0, ALV-GmbH, Langen, Germany) software, and the scattering intensity was obtained through an average of 10 consecutive 30 s runs.

Data set [3] in a line: Carboxyfluorescein release assay, mammalian liposome model. In kind it is biochemical. The settings on record: 65:5:30 POPC:POPS:Chol. liposomes, 25 µM lipid, 10 mM PBS pH 7.4, 10^–5–10^2 µM peptide, 60 min, fluorescence, Hill fit, n = 3; read-out: EC50 Mammalial (concentration that triggers 50% CF release). Summed up: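 CF-loaded extruded 0.1 µm unilamellar liposomes: bacterial POPC:POPG 75:25, mammalian POPC:POPS:Chol 65:5:30. Liposomes at 25 µM lipid in PBS pH 7.4 incubated with peptide (10^–5–10^2 µM; n = 3), fluorescence read every 2.5 min for 1 h. Release normalized to 1% Triton X-100; EC50 from Hill-1 fit.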

Residues, ends and D or L forms follow the SMILES beside them. *: point of attachment. Pentanoyl = CCCCC(=O)* A value given as a limit tells only on which side of the number the result lay.

As for `CCCCC(=O)N[C@@H](CC(C)C)C(=O)NCC(=O)N[C@H](C(=O)N[C@@H](CCCCN)C(=O)N[C@H](C(=O)N[C@@H](CC(C)C)C(=O)N[C@@H](Cc1c[nH]c2ccccc12)C(=O)N[C@@H](CO)C(=O)N[C@@H](C)C(=O)N[C@@H](Cc1ccc(O)cc1)C(=O)N[C@@H](CCCCN)C(=O)N[C@@H](Cc1c[nH]cn1)C(=O)N[C@@H](CCCNC(=N)N)C(=O)N[C@@H](CCCCN)C(=O)N[C@H](C(=O)N[C@H](C(N)=O)[C@@H](C)CC)[C@@H](C)O)[C@@H](C)CC)[C@@H](C)CC` [L-6-C5] (Pentanoyl-LGIKILWSAYKHRKTI-NH2), the MBC in the data set on A. baumannii was 6.3 µM; with P. aeruginosa it was 100 µM; with K. pneumoniae it was 100 µM; with E. cloacae, over 100 µM; in the data set on E. faecium it was 12.5 µM. The MIC is 3.1 µM in the data set with A. baumannii; 50 µM with P. aeruginosa; 50 µM with K. pneumoniae; over 100 µM with E. cloacae; 6.3 µM in the data set with E. faecium. The “E. coli MBC” value with E. coli (K-12 MG1655) was determined as 6.2 µM. Moreover, in the data set on E. coli (K-12 MG1655), the “E. coli MIC” value was 6.2 µM. Moreover, the “S. aureus MBC” value in data set [1] is reported as 6.2 µM. The “S. aureus MIC” value in data set [1] was 6.2 µM. In addition, the “critical aggregation concentration (CAC)” value in [2] was 5.6 µM. Besides, the EC50 in data set [3] worked out at 10.5 µM.
